Experimental data reported in publication PMC6858373 (Scientific Reports, 2019).
Where two headings read alike, the source gives them in different places.

Assays:
[1] = molecular target: T1, FGF14:Nav1.6 C-tail complex (Homo sapiens, UniProt Q92915+Q9UQD0); test: Split-luciferase complementation assay (LCA) in Clone V double stable HEK293 cells; format: cell-based
T1 construct: polymerase chain reaction (PCR) amplification of the FGF14 open reading frame (nt 1–855); C-terminal fragment of Nav1.6 (amino acids 1763–1976) fused with CD4ΔC-tail (amino acids 1–395); expressed in transfected cells

[2] = molecular target: full-length P. pyralis luciferase (Photinus pyralis, UniProt P08659, K549A/L550V/N119G/N50D/S548I); format: cell-based
[3] = CC_NCI screening, biological replicate Set 1, normalized to on-plate 0.3% DMSO controls
[4] = CC_NCI screening, biological replicate Set 1, normalized to on-plate 0.3% DMSO controls (n=16 per plate)
[5] = CC_NCI screening, biological replicate Set 2, normalized to on-plate 0.3% DMSO controls
[6] = CC_NCI screening, biological replicate Set 2, normalized to on-plate 0.3% DMSO controls (n=16 per plate)
[7] = average of Set 1 and Set 2, normalized to 0.3% DMSO controls
[8] = CC_NCI screening, normalized to on-plate 0.3% DMSO controls
[9] = CC_NCI screening, LCA luminescence, biological replicate Set 1, normalized to on-plate 0.3% DMSO controls (n=16 per plate)
[10] = CC_NCI screening, LCA luminescence, biological replicate Set 2, normalized to on-plate 0.3% DMSO controls (n=16 per plate)
[11] = CC_NCI screening, LCA, biological replicate Set 1, normalized to on-plate 0.3% DMSO controls
[12] = CC_NCI screening, LCA, biological replicate Set 2, normalized to on-plate 0.3% DMSO controls
[13] = CC_NCI screening, average of Set 1 and Set 2, normalized to 0.3% DMSO controls
[14] = CC_NCI screening, full-length luciferase counter-screen luminescence, normalized to on-plate 0.3% DMSO controls
[15] = CC_NCI screening, full-length luciferase counter-screen, normalized to on-plate 0.3% DMSO controls

T1 sequence (Q92915 1-252 isoform Q92915-2): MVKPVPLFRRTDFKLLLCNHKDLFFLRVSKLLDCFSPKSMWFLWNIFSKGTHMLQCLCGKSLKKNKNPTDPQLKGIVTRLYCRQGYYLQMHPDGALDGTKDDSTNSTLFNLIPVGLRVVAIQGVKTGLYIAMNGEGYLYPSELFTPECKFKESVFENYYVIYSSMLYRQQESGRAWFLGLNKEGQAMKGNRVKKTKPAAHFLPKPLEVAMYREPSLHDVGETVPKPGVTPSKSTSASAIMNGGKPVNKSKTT
T1 sequence (Q9UQD0 1763-1976 limits assumed): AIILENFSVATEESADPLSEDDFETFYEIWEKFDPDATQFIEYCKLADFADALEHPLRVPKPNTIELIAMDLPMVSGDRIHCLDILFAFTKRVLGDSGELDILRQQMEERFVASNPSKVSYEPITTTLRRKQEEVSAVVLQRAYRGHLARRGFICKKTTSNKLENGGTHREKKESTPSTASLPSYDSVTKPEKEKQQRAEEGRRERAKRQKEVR
Chain of full-length P. pyralis luciferase (P08659 whole entry N50D/N119G/S548I/K549A/L550V, looked up): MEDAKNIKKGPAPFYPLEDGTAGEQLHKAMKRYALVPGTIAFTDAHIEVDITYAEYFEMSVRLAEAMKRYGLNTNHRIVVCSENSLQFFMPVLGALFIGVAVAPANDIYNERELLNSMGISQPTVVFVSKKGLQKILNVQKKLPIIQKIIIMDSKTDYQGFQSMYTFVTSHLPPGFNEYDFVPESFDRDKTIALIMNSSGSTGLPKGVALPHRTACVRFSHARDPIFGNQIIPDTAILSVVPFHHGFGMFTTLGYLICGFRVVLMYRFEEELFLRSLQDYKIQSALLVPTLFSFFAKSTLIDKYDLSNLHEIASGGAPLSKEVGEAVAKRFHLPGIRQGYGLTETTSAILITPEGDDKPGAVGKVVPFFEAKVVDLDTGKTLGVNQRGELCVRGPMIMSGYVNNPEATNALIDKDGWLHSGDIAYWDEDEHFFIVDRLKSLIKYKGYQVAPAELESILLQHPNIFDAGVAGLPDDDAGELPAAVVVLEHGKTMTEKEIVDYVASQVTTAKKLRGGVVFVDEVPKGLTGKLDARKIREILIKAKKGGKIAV

Row | Structure (SMILES) | Luciferase Assay Z-score [2] | Toxicity Assay % Fluor (Clone V cells; human, 16 h, 30 µM) | Toxicity Assay Z-score (Clone V cells; human, 16 h, 30 µM) | Split Luciferase Assay % Lum Set 1 [1, 9] | Split Luciferase Assay %Lum Set 2 [1, 10] | Split Luciferase Assay Z-score Set 1 [1, 11] | Split Luciferase Assay Z-score Set 2 [1, 12] | Split Luciferase Assay %Lum Avg [1, 13] | Luciferase Assay % Lum [2, 14] | Luciferase Assay Z-score [2, 15] | other results
1 | C[C@]12CC[C@@H]3c4ccc(OC(=O)N(CCCl)CCCl)cc4CC[C@H]3[C@@H]1CC[C@@H]2OP(=O)(O)O [Estramustine phosphate sodium] | -1.75 |  |  |  |  |  |  |  |  |  | Toxicity Assay % Fluor (Clone V cells; human): 92.97%; Toxicity Assay Z-score (Clone V cells; human): -0.98; Split Luciferase Assay % Lum Set 1 [1]: 26.42%; Split Luciferase Assay %Lum Avg [1]: 32.45%; Split Luciferase Assay %Lum Set 2 [1]: 38.49%; Split Luciferase Assay Z-score Set 1 [1]: -5.95; Split Luciferase Assay Z-score Set 2 [1]: -5.00; Luciferase Assay % Lum [2]: 86.35%
2 | CCN(CC)CCCC(C)Nc1nc(C)cc(Nc2ccc3nc(C)cc(N)c3c2)n1 (stereo not drawn) [NSC23766] |  |  |  |  |  |  |  |  |  |  | Toxicity Assay % Fluor (CTB cell viability fluorescence) (Clone V cells): 111.37%; Toxicity Assay Z-score (CTB cell viability) (Clone V cells): 1.59; Split Luciferase Assay Z-score Set 1 [1, 3]: 0.12; Split Luciferase Assay % Lum Set 1 [1, 4]: 101.43%; Split Luciferase Assay Z-score Set 2 [1, 5]: -0.01; Split Luciferase Assay %Lum Set 2 [1, 6]: 99.87%; Split Luciferase Assay %Lum Avg [1, 7]: 100.65%; Luciferase Assay Z-score (full-length luciferase counter-screen) [2, 8]: 0.79
3 | CC1=C2C[C@H]3[C@@H](CC=C4C[C@@H](O)CC[C@@]43C)[C@@H]2CC[C@]12O[C@@H]1C[C@H](C)CN[C@H]1[C@H]2C [CYCLOPAMINE] | 0.81 |  |  |  |  |  |  |  |  |  | Toxicity Assay % Fluor (Clone V cells; human): 85.59%; Toxicity Assay Z-score (Clone V cells; human): -2.01; Split Luciferase Assay % Lum Set 1 [1]: 141.65%; Split Luciferase Assay %Lum Avg [1]: 122.84%; Split Luciferase Assay %Lum Set 2 [1]: 104.03%; Split Luciferase Assay Z-score Set 1 [1]: 3.37; Split Luciferase Assay Z-score Set 2 [1]: 0.33
4 | CNC(=O)c1ccc(N2C(=S)N(c3ccc(C#N)c(C(F)(F)F)c3)C(=O)C2(C)C)cc1F [Enzalutamide] | -2.55 | 90.81% | -1.28 | 94.90% | 98.83% | -0.41 | -0.10 | 96.87% |  |  | Luciferase Assay % Lum [2]: 80.08%
5 | NC(=O)NO [Hydroxyurea] |  |  |  |  |  |  |  |  |  |  | Toxicity Assay % Fluor (CTB cell viability fluorescence) (Clone V cells): 115.47%; Toxicity Assay Z-score (CTB cell viability) (Clone V cells): 2.16; Split Luciferase Assay Z-score Set 1 [1, 3]: -0.85; Split Luciferase Assay % Lum Set 1 [1, 4]: 89.47%; Split Luciferase Assay Z-score Set 2 [1, 5]: 1.01; Split Luciferase Assay %Lum Set 2 [1, 6]: 112.35%; Split Luciferase Assay %Lum Avg [1, 7]: 100.91%; Luciferase Assay % Lum (full-length luciferase counter-screen) [2, 8]: 102.60%; Luciferase Assay Z-score (full-length luciferase counter-screen) [2, 8]: 0.33
6 | N#C/C(=C/c1ccc(O)c(O)c1)C(=O)NCc1ccccc1 [AG 490] |  |  |  | 118.82% | 120.68% | 1.52 | 1.68 | 119.75% | 85.62% | -1.84 | Toxicity Assay % Fluor (Clone V cells): 89.42%; Toxicity Assay Z-score (Clone V cells): -1.48
7 | OC[C@H]1O[C@@H](n2cnc3c2NC=NC[C@H]3O)C[C@@H]1O [Pentostatin] | -0.26 | 86.56% | -1.88 |  |  | 2.75 | 3.80 |  |  |  | Split Luciferase Assay % Lum Set 1 [1]: 134.04%; Split Luciferase Assay %Lum Avg [1]: 140.36%; Split Luciferase Assay %Lum Set 2 [1]: 146.68%; Luciferase Assay % Lum [2]: 97.96%
8 | CCn1c(-c2nonc2N)nc2cnc(Oc3cccc(NC(=O)c4ccc(OCCN5CCOCC5)cc4)c3)cc21 [GSK 269962A] |  | 101.41% | 0.20 | 26.42% | 31.21% | -5.95 | -5.60 | 28.81% | 79.80% | -2.59 | 
9 | COc1nc(N)nc2c1ncn2[C@@H]1O[C@H](CO)[C@@H](O)[C@@H]1O [Nelarabine] | -0.78 | 90.75% | -1.29 | 129.69% | 114.43% | 2.40 | 1.17 | 122.06% |  |  | Luciferase Assay % Lum [2]: 93.91%
10 | O=C1NC(=O)/C(=C/c2ccc(-c3ccc(F)cc3O)o2)S1 [AS 252424] |  |  |  |  |  |  |  |  |  |  | Toxicity Assay % Fluor (CTB cell viability fluorescence) (Clone V cells): 99.49%; Toxicity Assay Z-score (CTB cell viability) (Clone V cells): -0.07; Split Luciferase Assay Z-score Set 1 [1, 3]: -3.31; Split Luciferase Assay % Lum Set 1 [1, 4]: 59.03%; Split Luciferase Assay Z-score Set 2 [1, 5]: -4.84; Split Luciferase Assay %Lum Set 2 [1, 6]: 40.57%; Split Luciferase Assay %Lum Avg [1, 7]: 49.80%; Luciferase Assay % Lum (full-length luciferase counter-screen) [2, 8]: 69.90%; Luciferase Assay Z-score (full-length luciferase counter-screen) [2, 8]: -3.86
11 | CN[C@@H]1C[C@H]2O[C@@](C)([C@@H]1OC)n1c3ccccc3c3c4c(c5c6ccccc6n2c5c31)C(=O)NC4 [Staurosporine, reference compound] |  |  |  | 23.16% | 14.56% | -6.21 | -6.95 | 18.86% | 101.58% | 0.20 | Toxicity Assay % Fluor (Clone V cells; human): 82.83%; Toxicity Assay Z-score (Clone V cells; human): -2.40; Z-score (LCA primary screening) ([1]; 30 µM, 384-well, average of primary screening (n = 2), vs on-plate 0.3% DMSO): −6.58; IMin (% Luminescence) ([1]; antagonists, Clone V cells, 384-well, normalized to DMSO): 18.86 % Luminescence
12 | Cc1nc2sccn2c(=O)c1CCN1CCC(=C(c2ccccc2)c2ccc(F)cc2)CC1 [Compound R59022] |  |  |  |  |  |  |  |  |  |  | Toxicity Assay % Fluor (CTB cell viability fluorescence) (Clone V cells): 113.72%; Toxicity Assay Z-score (CTB cell viability) (Clone V cells): 1.92; Split Luciferase Assay Z-score Set 1 [1, 3]: -1.91; Split Luciferase Assay % Lum Set 1 [1, 4]: 76.42%; Split Luciferase Assay Z-score Set 2 [1, 5]: -0.10; Split Luciferase Assay %Lum Set 2 [1, 6]: 98.83%; Split Luciferase Assay %Lum Avg [1, 7]: 87.63%; Luciferase Assay % Lum (full-length luciferase counter-screen) [2, 8]: 55.65%; Luciferase Assay Z-score (full-length luciferase counter-screen) [2, 8]: -5.68
13 | CO[C@H]1C[C@@H]2CC[C@@H](C)[C@@](O)(O2)C(=O)C(=O)N2CCCC[C@H]2C(=O)O[C@H]([C@H](C)C[C@@H]2CC[C@@H](OC(=O)C(C)(CO)CO)[C@H](OC)C2)CC(=O)[C@H](C)/C=C(\C)[C@@H](O)[C@@H](OC)C(=O)[C@H](C)C[C@H](C)/C=C/C=C/C=C/1C [TEMSIROLIMUS] |  | 87.05% | -1.81 | 86.21% | 83.22% | -1.11 | -1.36 | 84.72% | 65.73% | -4.39 | 
14 | O=P1(N(CCCl)CCCl)NCCCO1 (stereo not drawn) [Cyclophosphamide] | 0.21 |  |  |  |  |  |  |  |  |  | Toxicity Assay % Fluor (Clone V cells; human): 98.87%; Toxicity Assay Z-score (Clone V cells; human): -0.16; Split Luciferase Assay % Lum Set 1 [1]: 107.95%; Split Luciferase Assay %Lum Avg [1]: 112.75%; Split Luciferase Assay %Lum Set 2 [1]: 117.56%; Split Luciferase Assay Z-score Set 1 [1]: 0.64; Split Luciferase Assay Z-score Set 2 [1]: 1.43; Luciferase Assay % Lum [2]: 101.62%
15 | FC(F)c1nc2ccccc2n1-c1nc(N2CCOCC2)nc(N2CCOCC2)n1 [ZSTK474] |  | 95.63% | -0.61 | 95.99% | 74.90% | -0.32 | -2.04 | 85.45% | 86.44% | -1.74 | 
16 | CCc1cc(Nc2nccc(-c3c(-c4ccc(OC)c(C(=O)Nc5c(F)cccc5F)c4)nc4ccccn34)n2)c(OC)cc1N1CCC(N2CCN(S(C)(=O)=O)CC2)CC1 [GSK1904529A] |  |  |  | 116.65% | 92.59% | 1.35 | -0.60 | 104.62% | 86.97% | -1.67 | Toxicity Assay % Fluor (Clone V cells): 100.76%; Toxicity Assay Z-score (Clone V cells): 0.11
17 | COC(=O)c1ccc2c(c1)NC(=O)/C2=C(\Nc1ccc(N(C)C(=O)CN2CCN(C)CC2)cc1)c1ccccc1 [BIBF-1120] |  | 89.46% | -1.47 | 119.91% | 123.80% | 1.61 | 1.94 | 121.85% | 102.06% | 0.26 | 
18 | O=[As]O[As]=O (stereo not drawn) [Arsenic trioxide] |  |  |  | 20.98% | 29.13% | -6.39 | -5.77 | 25.05% | 96.86% | -0.40 | Toxicity Assay % Fluor (Clone V cells): 84.44%; Toxicity Assay Z-score (Clone V cells): -2.18
